From patent US4138492A, “Aromatic amides of heterocyclic compounds and therapeutic compositions containing same” (priority 1974, dated 1979)
Where a name gives a salt, the structure may show the parent alone.

Test system: apomorphine-induced gnawing
Test: Antiapomorphine activity (apomorphine-induced gnawing) in the rat
Format: in vivo
Conditions: for minimal effective dose / ED50: Rattus norvegicus; for minimal effective dose: read-out: Antiapomorphine in rat; for ED50: po, per os, Table I, read-out: ED50 Values; for activity as an anti-emetic: compared with metoclopramide, from Table I
Source text: A number of the compounds of the present invention were screened in parallel with metoclopramide for potential anti-emetic effects against apomorphine-induced gnawing in the rat and as local anaesthetics on the rat sciatic nerve (Table I).
*Antiapomorphine activity in rat scored as […]

Structure (SMILES)	minimal effective dose [mg/kg]	ED50 [mg/kg]	activity as an anti-emetic	antiapomorphine activity in the rat (even at high doses)
COc1cc(N)c(Cl)cc1C(=O)NC1CCN(C(c2ccccc2)c2ccccc2)CC1 [Compound 19, N-[4'-(1'-diphenyl-methyl)-piperidyl]-2-methoxy-4-amino-5-chloro-benzamide hydrochloride]	50			
COc1ccc(Cl)cc1C(=O)NC1CCN(Cc2ccccc2)CC1 [Compound 10, N-[4'-(1'-benzyl)piperidyl]-2-methoxy-5-chlorobenzamide hydrochloride]	50			
COc1cc(NC(C)=O)c(Cl)cc1C(=O)NC1CCN(Cc2ccccc2)CC1 [Compound 1, N-[4'-(1'-benzyl)piperidyl]-2-methoxy-4-acetamido-5-chlorobenzamide]	12.5	~25		
COc1cc(N)c(Cl)cc1C(=O)NC1CCN(Cc2ccc3c(c2)OCO3)CC1 [Compound 15]	6.25		more active as an anti-emetic	
COc1cc(NC(=O)C(F)(F)F)ccc1C(=O)NC1CCN(Cc2ccccc2)CC1 [Compound 7, N-[4'-(1'-benzyl)piperidyl]-2-methoxy-4-(α,α,α-trifluoroacetamido) benzamide hydrochloride]	25	< 25		
COc1cc(NC(=O)CN2CCCCC2)c(Cl)cc1C(=O)NC1CCN(Cc2ccccc2)CC1 [Compound 4, N-[4'-(1'-benzyl)piperidyl] -2-methoxy-4-α-(1"-piperidyl) acetamido-5-chlorobenzamide dihydrochloride]	12.5	~12		
COc1ccc(S(N)(=O)=O)cc1C(=O)NC1CCN(Cc2ccccc2)CC1 [N-[4'-(1'-benzyl)piperidyl]-2-methoxy-5-sulphamoylbenzamide hydrochloride]				do not exhibit antiapomorphine activity in the rat even at high doses
COc1cc(NC(=O)CCl)c(Cl)cc1C(=O)NC1CCN(Cc2ccccc2)CC1 [Compound 3, N-[4'-(1'-benzyl)piperidyl]-2-methoxy-4-(α-chloroacetamido)-5-chlorobenzamide hydrochloride]	6.25	< 25	more active as an anti-emetic	
COc1cccc(CN2CCC(NC(=O)c3cc(Cl)c(N)cc3OC)CC2)c1 [Compound 13, N-[4'-(1'-m-methoxy-benzyl)-piperidyl]-2-methoxy-4-amino-5-chloro-benzamidehydrochloride]	25			
COc1cc(N)c(Cl)cc1C(=O)NC1CCN(Cc2ccccc2Cl)CC1 [Compound 21, N-[4'-(1'-o-chlorobenzyl)-piperidyl]-2-methoxy-4-amino-5-chloro-benzamide hydrochloride]	25			
COc1cc(NC(=O)CCl)ccc1C(=O)NC1CCN(Cc2ccccc2)CC1 [Compound 5, N-[4'-(1'-benzyl)piperidyl]-2-methoxy-4-α-chloroacetamidobenzamide hydrochloride]	25			
COc1cc(NC(=O)C(F)(F)F)c(Cl)cc1C(=O)NC1CCN(Cc2ccccc2)CC1 [Compound 9, N-[4'-(1'-benzyl)piperidyl]-2-methoxy-4-(α,α, α-trifluoroacetamido)-5-chlorobenzamide hydrochloride]	3.12	< 25	more active as an anti-emetic	
O=C(CCl)Nc1ccc(C(=O)NC2CCN(Cc3ccccc3)CC2)cc1 [Compound 6, N-[4'-(1'-benzyl)piperidyl]-4-(α-chloroacetamido) benzamide hydrochloride]	50			
COc1cc(N)c(Cl)cc1C(=O)NC1CCN(Cc2ccc(Cl)cc2)CC1 [Compound 12, N-[4'-(1'-p-chlorobenzyl)-piperidyl]-2-methoxy-4-amino-5-chloro-benzamide hydrochloride]	3.12		more active as an anti-emetic	
COc1cc(N)c(Cl)cc1C(=O)NC1CCN(Cc2cccc(Cl)c2)CC1 [Compound 17, N-[4'-(1'-m-chlorobenzyl)-piperidyl]-2-methoxy-4-amino-5-chloro-benzamide hydrochloride]	12.5			
